# System: skin (patch test sites on the intrascapular area of the back)
# Assay: Patch Test, 14-day cumulative irritation test
# Conditions: for Patch test Total irritation score: cleansers diluted to 25% w/w, 14-day cumulative score
# Experimental: This was randomized, double-blind study. A sufficient number of subjects were recruited to ensure that 25 subjects completed the study. The 14-day cumulative irritation test was conducted as follows. Patching occurred for 14 consecutive days, except on Sundays. Patches applied on Saturday were left in place until Monday, when freshly prepared patches were applied. The designated patch test sites were approximately 2 cm×2 cm on the intrascapular area of the back. Approximately 0.2 mL of the test product was placed onto a Parke-Davis Readi-Bandage® occlusive patch that measured 2 cm×2 cm. Solutions were made by diluting the cleansers to 25% w/w in distilled water. The patch was then applied to the designated test site. The patches were secured with hypoallergenic tape (Scanpor {Allerderm} as needed). A 0.5% sodium dodecyl sulfate (SDS) solution was used as the control in the test.
# Each day following application, the patches were removed, the sites evaluated and identical patches reapplied to the same test sites. All evaluations were made using the following 6-point scoring system: • 0=No evidence of any effect • +=Barely perceptible (minimal, faint, uniform or spotty erythema) numerically equivalent to 0.5 • 1=Mild (pink, uniform erythema covering most of the contact site) • 2=Moderate (pink-red, erythema uniform in the entire contact site) • 3=Marked (bright red erythema with/without petechiae or papules) • 4=Severe (deep red erythema with/without vesiculation or weeping)
# If a dermal reaction of 3 or 4 occur with any of the test articles at any point during the study, further patch testing on that subject was terminated at the test site involved, and the attained score was assigned to that site for the subsequent scheduled test days.
# Cumulative irritation scores, which were the sum of the numerical irritation grades assigned daily during the 14-day test period, were calculated at the end of the study to compare mildness of the test products. […] The data were statistically analyzed using Tukey-Kramer Comparison, and statistical significance was determined at the 95% confidence level.
# [1] = first patch test of Table 1 (0.5% SDS control = 783)
# [2] = second patch test of Table 1 (0.5% SDS control = 912)
compound,measurement,setting,value
"CCCCCCCCCCCCOS(=O)(=O)[O-].[Na+] [0.5% SDS Solution, sodium dodecyl sulfate]",Total irritation score compared to 0.5% SDS solution,[1],100%
same,Patch test Total irritation score,[1],783
same,Total irritation score compared to 0.5% SDS solution,[2],100%
same,Patch test Total irritation score,[2],912

# From US8268767B2, “Personal wash cleanser comprising defined alkanoyl compounds, defined fatty acyl isethionate surfactant product and skin or hair benefit agent” (priority 2010, dated 2012)
